Assay results published in US20070231871A1, “Process for an Enzymatic Oxygenation by Direct Electrochemical Regeneration of the Fad-Dependent Monooxygenase” (priority 2004, published 2007).
Marks after values point to notes of the source that are not given here.

Target: T1, Styrene monooxygenase (StyAB), FAD-dependent monooxygenase component (StyA) (Pseudomonas sp, UniProt O50214)
T1 construct: made in house; host or cells: Escherichia coli JM101
T1 sequence (O50214 1-415): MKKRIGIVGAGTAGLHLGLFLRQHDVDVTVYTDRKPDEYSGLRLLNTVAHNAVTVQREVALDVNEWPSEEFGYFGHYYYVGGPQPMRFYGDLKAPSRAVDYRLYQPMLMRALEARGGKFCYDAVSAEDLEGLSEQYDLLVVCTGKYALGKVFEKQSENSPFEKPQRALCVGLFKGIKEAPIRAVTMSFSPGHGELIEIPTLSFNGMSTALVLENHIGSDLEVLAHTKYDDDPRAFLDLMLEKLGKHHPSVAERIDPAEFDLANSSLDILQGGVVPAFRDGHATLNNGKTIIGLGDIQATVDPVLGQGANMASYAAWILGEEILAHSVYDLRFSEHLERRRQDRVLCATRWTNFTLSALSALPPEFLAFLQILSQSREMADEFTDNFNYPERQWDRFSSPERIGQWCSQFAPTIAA
Assay: Electroenzymatic epoxidation of styrene derivatives by StyA with direct electrochemical FAD regeneration
Assay type: biochemical
Conditions: for ee-value: optical purity of the (S)-epoxide product of the electroenzymatic epoxidation
Method: Initial experiments on the electroenzymatic epoxidation were performed with trans-β-methyl styrene as substrate. Electrolyses were performed potentiostatically applying a cathode potential of −550 mV vs. Ag/AgClsat. No product formation was detectable when either StyA or FAD was omitted from the reaction medium. […] Similarly, a broad variety of diversely substituted vinylaromatic compounds could be transformed to the more than 98% optically pure corresponding (S) epoxides (Table 1).
StyA was enriched from recombinant Escherichia coli JM101 as described previously^[35]. The purity of the lyophilized biocatalyst was approximately 70% (as determined by SDS gel-electrophoresis).
Electrolyses were performed in a thermostatted stirred tank reactor. Cylindrical carbon felt served as cathode (working electrode) and the potential was adjusted versus a saturated Ag/AgClsat. reference electrode. The dimensions of the working electrode are given a macroscopic area (corresponding to an average of 27.1±2.1 mg cm^−2). Conditions of either a divided or an undivided cell were chosen. For the divided cell, the Pt-wire counter electrode was placed in a dialysis membrane; otherwise a Pt-foil (Ø1 cm) was used. After supplementing the reactor with the reaction components indicated a cathode potential of −550 mV vs. Ag/AgClsat was applied. In case of divided cell, O2 was supplied by heterogeneous intake of air (intake rates were estimated with a Hewlett Packard soap film flowmeter; under the conditions of an undivided cell, O2 was generated at the counter electrode.
Reaction rates (and enzyme performances calculated thereof were determined based on the product formation as determined by HPLC using protocols previously reported.^[34, 35]

[1] = potassium phosphate buffer 50 mM pH 7.5, T = 30° C., c(StyA) = 2.13 μM, c(FAD) = 300 μM, catalase 480 U mL^−1, substrate 2 mM, cathode 14 cm^2, −550 mV vs. Ag/AgClsat

Structure (SMILES)	ee-value [%]	Rate [1] [U g^−1]	further results
C[C@]1(c2ccccc2)CO1	99.5	–	–
C[C@@H]1O[C@H]1c1ccccc1 [(1S,2S)-1-phenylpropylene oxide]	>99.9	–	Optical purity of product (substrate trans-β-methyl styrene, −550 mV vs. Ag/AgClsat, all reaction components present): practically enantiopure
C=C(C)c1ccccc1	–	14.6	–
c1ccc([C@H]2CO2)cc1	98.5	–	–
C/C=C/c1ccccc1 [trans-β-methyl styrene]	–	35.5	–
c1ccc2c(c1)CC[C@H]1O[C@@H]21	99.2	–	–
C=Cc1ccccc1	–	28.1	–
C1=Cc2ccccc2CC1	–	58.9	–
C=Cc1cccc(Cl)c1	–	–	Rate (as general conditions but T = 25° C., activity determined after 15 min): 27.7 [b] U g^−1
Clc1cccc([C@H]2CO2)c1	98.1	–	–
